Laboratory results published in publication PMC11436104 (Toxins, 2024).
“And” between values parts separate entries of the source, which are not always exact repeats. Identical values can stand only once. Like-named read-outs stand apart in the source and are kept apart here. *1 amine or outer side, *2 acyl side, *3 side chain or, on linkers, in order; H or OH if unused. Where a SMILES comes first, the peptide text is derived from it. Bridges are numbered along the chain shown (N, C = ends). [ ]: non-standard residue; d: D form. Adda = CO[C@@H](Cc1ccccc1)[C@@H](C)/C=C(C)/C=C/[C@H](N[*:1])[C@H](C)C(=O)[*:2]; dAsp(3S-Me) = C[C@H](C(=O)[*:3])[C@@H](N[*:1])C(=O)[*:2]; d(γGlu) = O=C(O)[C@@H](CCC(=O)[*:2])N[*:1]; hTyr = N[C@@H](CCc1ccc(O)cc1)C(=O)O; NMeA = CN[C@@H](C)C(=O)O; NMeDha = C=C(NC)C(=O)O; CO = O=C([*:1])[*:2]

Experiments:
[1] = system: NHAs (normal human astrocytes); experiment: MTT metabolic activity / cell viability; format: cell-based
Description: Normal human astrocytes (NHAs; Lonza, Walkersville, MD, USA) were grown and maintained in monolayer cultures in Dulbecco’s modified Eagle’s medium (DMEM; Sigma) supplemented with 10% fetal bovine serum (Euroclone, Pero, MI, Italy), 1% penicillin/streptomycin (Euroclone), 2 mM L-glutamine (Euroclone), and 20 mM Hepes (Invitrogen, Carlsbad, CA, USA). The U87-MG human glioblastoma cells (U87-MG cells; American Type Culture Collection, Manassas, VA, USA) were grown and maintained in monolayer cultures in DMEM supplemented with 10% fetal bovine serum, 1% penicillin/streptomycin, 4 mM L-glutamine, and 1% non-essential amino acids (Sigma).
Cell viability was determined using the 3-(4,5-dimethylthiazolyl-2)-2,5-diphenyltetrazolium bromide (MTT) assay, as according to Mosmann. This assay measures the conversion of MTT to its insoluble formazan by the dehydrogenase enzymes of the intact mitochondria of living cells. […]; Nunclon; Nunc, Naperville, IL, USA) and incubated for 16 h at 37 °C for attachment. The cell-growth medium was then replaced by fresh medium containing 0, 0.1, 1, and 10 µM of each CCP and incubated for an additional 24 h. These experiments were performed without using dimethylsulphoxide to best retain the original permeability of the cell membranes. Each experiment included the negative control of cell-growth medium with no additions. Following incubation (CO2 incubator), 20 μL 5 mg/mL MTT was added to each well. The plates were incubated for another 3 h. […] The amount of formazan, which is proportional to the metabolic activity of cells, was quantified spectrophotometrically at 570 nm (reference filter wavelength, 690 nm) using a microplate reader (Synergy MX; BioTek, Winooski, VT, USA). The metabolic activity of the cells was determined by comparing the optical densities of the CCP-treated cells with those of the negative control. Five replicates per concentration and three independent experiments were performed. Student’s t-tests were used to analyze the differences between the treated and control cells using Prism 5 software (GraphPad, Inc., La Jolla, CA, USA), where p < 0.05 was considered to be statistically significant.

NES = experiment: Gene expression by quantitative real-time PCR in U-87MG cells; format: cell-based, human
Description: (§1) Cells were seeded onto 6-well plates, left to attach for 16 h, and treated with each non-hCCP separately (0.1–10 µM) and the hepatotoxic MC-LR (0.01–1 µM) for 24 h at 37 °C in the CO2 incubator. The total RNA from the cells (0.5–1.0 × 10^6 cells) was isolated using the TRIzol reagent (Invitrogen), and the cDNA was synthesized using 1 μg total RNA with cDNA high-capacity archive kits (Applied Biosystems, Foster City, CA, USA), according to the manufacturer’s protocol.
(§2) The expression levels of TUBA1A, ACTB, NES, and GFAP were quantified using quantitative real-time PCR (ABI 7900 HT Sequence Detection System; Applied Biosystems). TaqMan Universal PCR Master Mix and the following TaqMan Gene Expression Assays were used: TUBA1A: tubulin, alpha 1a, Hs00362387_m1; ACTB: actin, beta, Hs99999903_m1; NES, nestin, Hs00707120_s1; and GFAP, glial fibrillary acidic protein, and Hs00157674_m1 (all from Applied Biosystems). Amplification of a glyceraldehyde 3-phosphate dehydrogenase probe GAPDH (Human Endogenous Controls, Cat. # 4310884E; Applied Biosystems) was performed as an internal control. The conditions for the quantitative real-time PCR were as follows: 50 °C for 2 min, 95 °C for 10 min, 40 cycles of 95 °C for 15 s, and 60 °C for 1 min.
(§3) The data obtained from the TaqMan Gene Expression Assays were analyzed using the ΔΔCt algorithm. Two replicates per concentration and three independent experiments were performed. The statistical significance between the controls and the treated groups was determined using two-tailed Student’s t-tests, where p < 0.05 was statistically significant. In addition, the relative expression was normalized to the housekeeping gene GAPDH (relative quantification), with at least three sample concentrations used for each gene in both untreated cell lines.

TUBA1A = experiment: as above; format: cell-based, human
Description: as §1, §2, §3

ACTB = experiment: as above; format: cell-based, human; conditions: 24 h, relative to non-treated control
Description: as §1, §2, §3

GFAP = experiment: as above; format: cell-based, human; conditions: 24 h, relative to non-treated control
Description: as §1, §2, §3

[2] = Insertion into lipid monolayer (Langmuir trough, surface pressure); format: physicochemical; conditions: for insertion kinetics into the lipid monolayer (surface pressure increase): 20 µM, initial pressure ~11 mN/m; for critical pressure of insertion: extrapolation to zero pressure variation (ΔΠ = 0), 20 µM CCP
Description: Lateral pressure measurements were carried out in a Langmuir trough (MicroTrough-S system; Kibron, Helsinki, Finland) at room temperature (25 °C) under constant stirring. The aqueous sub-phase was 500 µL 10 mM Hepes, 200 mM NaCl, and pH 7.5.
To create lipid monolayers, dioleylposphatidylcholine and cholesterol (70:30) were dissolved together in chloroform/methanol (2:1, v/v) and gently spread over the sub-phase. The desired initial surface pressure was obtained by changing the amounts of the lipid mixture applied to the air–water interface. After solvent evaporation (10 min), each CCP was separately injected through a hole that was connected to the sub-phase, at a final concentration in the Langmuir trough of 20 µM. The changes in surface pressure versus time were recorded until a stable signal was obtained. […] The increase in the surface pressure (∆Π) was plotted versus the initial pressure (Π0), and the critical pressures were determined using linear regression with Prism 5 software (GraphPad, Inc., La Jolla, CA, USA).

NHAs = experiment: Cell morphology, light microscopy (phase contrast); format: cell-based, human; conditions: evident already at 1 µM, 24 h, 100× magnification
[3] = U-87MG, 0.1 µM CCP, 24 h, relative to non-treated control
[4] = U-87MG, 1 µM CCP, 24 h, relative to non-treated control
[5] = U-87MG, 10 µM CCP, 24 h, relative to non-treated control

SMILES	metabolic activity vs control [1]	cytotoxicity ([1]; 10 µM, read-out: cell viability lower than the control) [%]	Changes in gene expression of NES (NES)	Changes in gene expression of TUBA1A (TUBA1A)	metabolic activity vs control ([1]; NHAs, up to 10 µM, 24 h)	Changes in gene expression of ACTB (ACTB; 0.1 µM CCP)	Changes in gene expression of ACTB (ACTB; 1 µM CCP)	Changes in gene expression of ACTB (ACTB; 10 µM CCP)	Changes in gene expression of GFAP (GFAP; 0.1 µM CCP)	Changes in gene expression of GFAP (GFAP; 1 µM CCP)	Changes in gene expression of GFAP (GFAP; 10 µM CCP)	Changes in gene expression of NES (NES; [3])	Changes in gene expression of NES (NES; [4])	Changes in gene expression of NES (NES; [5])	Changes in gene expression of TUBA1A (TUBA1A; [3])	Changes in gene expression of TUBA1A (TUBA1A; [4])	Changes in gene expression of TUBA1A (TUBA1A; [5])	insertion kinetics into the lipid monolayer (surface pressure increase) [2]	critical pressure of insertion [2] [mN/m]	morphological changes under light microscopy (NHAs)
C=C1C(=O)N[C@H](C)C(=O)N[C@@H](CC(C)C)C(=O)N[C@@H](C(=O)O)[C@H](C)C(=O)N[C@@H](CCCNC(=N)N)C(=O)N[C@@H](/C=C/C(C)=C/[C@H](C)[C@H](Cc2ccccc2)OC)[C@H](C)C(=O)N[C@@H](C(=O)O)CCC(=O)N1C [MC-LR, Microcystin-LR, reference compound] (R[Adda][d(γGlu)][NMeDha][dA]L[dAsp(3S-Me)]-OH; lactam N-7)	significantly decreased	~20	1.030 ± 0.105 and 0.877 ± 0.148	1.031 ± 0.064 and 0.983 ± 0.099	–	–	–	–	–	–	–	–	–	–	–	–	–	–	–	–
CC[C@H](C)[C@@H]1NC(=O)[C@H](NC(=O)N[C@@H](CCCNC(=N)N)C(=O)O)CCCCNC(=O)[C@H](Cc2ccccc2)NC(=O)[C@H](C)N(C)C(=O)[C@H](CCc2ccc(O)cc2)NC1=O [anabaenopeptin F] ({Arg-CO}-[dK]I[hTyr][NMeA]F; lactam 1-C)	–	–	–	–	no significant changes from the control	0.935 ± 0.118	1.084 ± 0.138	1.046 ± 0.130	1.002 ± 0.087	1.096 ± 0.211	1.191 ± 0.435	1.040 ± 0.105	1.081 ± 0.056	0.886 ± 0.037	1.016 ± 0.098	1.023 ± 0.160	1.354 ± 0.126	–	–	–
CC[C@H](C)[C@@H]1NC(=O)[C@H](Cc2ccc(OC)cc2)N(C)C(=O)[C@H]([C@@H](C)O)N2C(=O)[C@H](CC[C@H]2O)NC(=O)[C@H](CC(C)C)NC(=O)[C@@H](NC(=O)[C@H](CCC(N)=O)NC(=O)[C@H](CCc2ccc(O)cc2)NC(=O)[C@@H](O)CO)[C@@H](C)OC1=O	–	–	–	–	no significant changes from the control	1.015 ± 0.057	1.051 ± 0.185	1.147 ± 0.105	1.107 ± 0.214	1.283 ± 0.185	1.016 ± 0.046	1.003 ± 0.164	1.069 ± 0.105	1.240 ± 0.041	1.124 ± 0.050	1.094 ± 0.172	1.171 ± 0.049	interacted rapidly with the monolayer	34.2	formation of twisted astrocytic outgrowths
CC(C)[C@@H]1NC(=O)[C@H](NC(=O)N[C@@H](CCCNC(=N)N)C(=O)O)CCCCNC(=O)[C@H](Cc2ccccc2)NC(=O)[C@H](C)N(C)C(=O)[C@H](CCc2ccc(O)cc2)NC1=O [anabaenopeptin B] ({Arg-CO}-[dK]V[hTyr][NMeA]F; lactam 1-C)	–	–	–	–	no significant changes from the control	0.998 ± 0.070	1.039 ± 0.070	1.122 ± 0.033	1.088 ± 0.390	–	1.175 ± 0.148	0.948 ± 0.143	0.992 ± 0.085	0.931 ± 0.054	1.131 ± 0.031	1.098 ± 0.192	1.429 ± 0.068	interacted rapidly with the monolayer	27.1	formation of twisted astrocytic outgrowths
